Values belong to the compound of their own block, whether it stands above or below them. Where a SMILES comes first, the peptide text is derived from it. Where no end group is shown, it is not given here. [ ]: non-standard residue; d: D form. pGlu = O=C1CC[C@@H](C(=O)O)N1
How the values were obtained:
[1] = tested on: diet-induced obese male mice; assay: Metabolic chamber studies after a single dose (food intake, RER, movement, VO2, VCO2); type: in vivo, mouse; conditions: single dose 50 mg/kg intraperitoneal, diet-induced obese male mice, metabolic chambers
Protocol: Fig. 5 Functional studies of […] in feeding and energy balance in mice. a Schematic of the primary amino acid sequence for full-length mouse GDF15 preproprotein and annotation of CAP-GDF15 sequence as well as the canonical GDF15 hormone sequence. b–d Food intake (b), respiratory exchange ratio (RER, c), and ambulatory activity (d) of 12–16-week diet-induced obese male mice following a single treatment of CAP-GDF15 (50 mg/kg, intraperitoneal) or vehicle control. e–g Food intake (e), RER (f), and ambulatory activity (g) of 12–16-week diet-induced obese male mice following a single treatment of scrambled CAP-GDF15 (50 mg/kg, intraperitoneal, scrambled sequence: pGlu-[…]-NH2) or vehicle control. h, i 3-day food intake (h) and body weight (i) of 12–16-week diet-induced obese male mice following treatment with CAP-GDF15 or scrambled CAP-GDF15 (50 mg/kg/day, IP), or vehicle control. […] For (b-i), p values were calculated by two-way ANOVA. Source data are provided as a Source Data file.
(§1) Animal experiments were performed according to a procedure approved by the Stanford University Administrative Panel on Laboratory Animal Care. Mice were maintained in 12-h light-dark cycles at 22 °C and about 50% relative humidity and fed a standard irradiated rodent diet. Where indicated, a high-fat diet (D12492, Research Diets 60% kcal from fat) was used. Male C57BL/6 J (stock number 000664) and male C57BL/6 J DIO mice were purchased from the Jackson Laboratory (stock number 380050). For studies in high-fat diet-fed mice, peptides were dissolved in 18:1:1 (by volume) of saline:Kolliphor EL (Sigma Aldrich):DMSO and administered to mice by intraperitoneal injections at a volume of 10 µl/g at the indicated doses for the indicated times. For lipopolysacchardide injection, LPS (Sigma, #L2880-10MG) was dissolved in saline and administered to mice at a volume of 5 µl/g at indicated dose. For fasting, food was removed from mice for 16 h. For running, a six-lane Columbus Instruments animal treadmill (product 1055-SRM-D65) was used with following 1 h protocol: 10 min at 6 m/min, 50 min at 18 m/min, and increase every 2 min by 2 m/min for the last 10 minutes, all at 12° incline. For all treatment experiments, mice were mock injected with the vehicle for 3–5 days until body weights were stabilized. Heparin plasma was harvested by submandibular bleed. For all experiments, mice were randomly assigned to treatment groups. Experimenters were not blinded to groups.
For acute energy expenditure studies, food intake, RER, movement, VO2, and VCO2 were collected with CLAMS Oxymax Metabolic Cages. Mice were placed in individual metabolic cages for 24 hours prior to experiment. Mice were injected with either vehicle, 50 mg/kg CAP-GDF15, 50 mg/kg uncapped CAP-GDF15, or 50 mg/kg scrambled CAP-GDF15 at 5 pm at T = 0. […] All experiments were done with 3–5 month old DIO mice (Jackson, stock 380050), fed high-fat diet ad libitum.
Supplementary Figure 5. Additional measurements from metabolic chambers of mice treated with CAP-GDF15. a CAP-GDF15 plasma concentration after administration of CAP-GDF15 (50 mg/kg, intraperitoneal) or vehicle control. b-c VO2 (b) and VCO2 (c) of 12-16-week diet-induced obese male mice following a single treatment of CAP-GDF15 (50 mg/kg, intraperitoneal) or vehicle control. d-e VO2 (d) and VCO2 (e) of 12-16-week diet-induced obese male mice following a single treatment of scrambled CAP-GDF15 (50 mg/kg, intraperitoneal, scrambled sequence: p[…]-NH2) or vehicle control. f Acute food intake of 12-16-week diet-induced obese male mice following a single treatment of CAP-GDF15 (50 mg/kg, intraperitoneal), uncapped CAP-GDF15 (50 mg/kg, intraperitoneal), or vehicle control. For (a), N=3/group; (b-c), N=12/group; for (d-e), N=8/group; for (f), N=5/group.
For (a-f), injection occurred at time T=0 (5:00pm). Data are shown as means ± SEM. For (b-i), p values were calculated by two-way ANOVA. Source data are provided as a Source Data

[2] = biological target: T1, human TACR3 (Homo sapiens, UniProt P29371); assay: TACR agonist assay, PathHunter beta-arrestin recruitment (TACR3); type: cell-based; conditions: read-out: maximal activation at TACR3, higher compared to Substance P(6-11)
T1 construct: host or cells: PathHunter beta-arrestin CHO-K1 cells
T1 sequence (P29371 1-465): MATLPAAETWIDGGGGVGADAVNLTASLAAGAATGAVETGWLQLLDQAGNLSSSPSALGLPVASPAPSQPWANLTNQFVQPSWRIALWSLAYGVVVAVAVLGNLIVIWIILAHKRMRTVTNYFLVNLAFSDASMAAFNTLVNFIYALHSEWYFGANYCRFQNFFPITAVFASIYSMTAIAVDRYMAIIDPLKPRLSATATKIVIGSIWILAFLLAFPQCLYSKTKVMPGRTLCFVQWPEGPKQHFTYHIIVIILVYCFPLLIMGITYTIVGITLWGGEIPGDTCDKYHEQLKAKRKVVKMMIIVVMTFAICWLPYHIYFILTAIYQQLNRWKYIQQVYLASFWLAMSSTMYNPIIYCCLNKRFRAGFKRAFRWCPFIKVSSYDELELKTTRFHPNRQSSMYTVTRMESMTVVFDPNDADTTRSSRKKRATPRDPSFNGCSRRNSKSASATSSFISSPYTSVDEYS

[3] = in vitro
Protocol: P value were calculated with two-way ANOVA. Source data are provided as a Source Data file.
At indicated time point, 1 µl of HALT protease inhibitor was immediately added, and plasma was boiled and prepared using the peptidomics workflow described above. […] Half-lives were calculated using an exponential decay fit.

[4] = human, in vivo; cited from earlier work
[5] = tested on: diet-induced obese male mice; assay: 3-day food intake and body weight under daily dosing; type: in vivo, mouse; conditions: for Food Intake: 50 mg/kg
Protocol: Fig. 5 Functional studies of […] in feeding and energy balance in mice. a Schematic of the primary amino acid sequence for full-length mouse GDF15 preproprotein and annotation of CAP-GDF15 sequence as well as the canonical GDF15 hormone sequence. b–d Food intake (b), respiratory exchange ratio (RER, c), and ambulatory activity (d) of 12–16-week diet-induced obese male mice following a single treatment of CAP-GDF15 (50 mg/kg, intraperitoneal) or vehicle control. e–g Food intake (e), RER (f), and ambulatory activity (g) of 12–16-week diet-induced obese male mice following a single treatment of scrambled CAP-GDF15 (50 mg/kg, intraperitoneal, scrambled sequence: pGlu-[…]-NH2) or vehicle control. h, i 3-day food intake (h) and body weight (i) of 12–16-week diet-induced obese male mice following treatment with CAP-GDF15 or scrambled CAP-GDF15 (50 mg/kg/day, IP), or vehicle control. Data are shown as means ± SEM. b–d, N = 12 mice/group; for e, f N = 8 mice/group; for h N = 7 food cages for vehicle and CAP-GDF15 groups and N = 5 for the scrambled peptide group; for i N = 14 mice for the vehicle group, N = 13 for the CAP-GDF15 group, and N = 5 for the scrambled peptide group. b–i injection occurred at time T = 0 (5:00 pm) and data were collected for the following 16 hrs. For (b-i), p values were calculated by two-way ANOVA. Source data are provided as a Source Data file.
Lastly, to determine whether the acute food intake suppressive effects of CAP-GDF15 would lead to long-term suppression of feeding and obesity, we administered CAP-GDF15 or scrambled CAP-GDF15 (50 mg/kg/day, IP), or vehicle control to diet-induced obese mice. Food intake and body weight were monitored over a three-day period. A durable suppression of food intake in CAP-GDF15-treated mice was over the three-day experiment (Vehicle, 7.3 ± 0.5 g/mouse; […], 4.1 ± 0.9 g/mouse/day, P < 0.05, Fig. 5h). Consequently, and as expected, an increasing reduction in body weight was also detected (Vehicle, +0.1 ± 0.3 g/mouse; CAP-GDF15, −1.9 ± 0.3 g/mouse, P < 0.001, Fig. 5i). Importantly, mice treated with the scrambled CAP-GDF15 peptide were indistinguishable in body weight or food intake from control mice (P > 0.05 versus vehicle-treated mice, Fig. 5h, i).
as §1

[6] = 50 mg/kg/day IP, diet-induced obese mice, N = 5, P > 0.05 versus vehicle

Compound: QLELRLRVAAGR [uncapped CAP-GDF15]
effect on acute food intake, in words [1]: significantly less efficacious

Emax [2]: ~20%
half-life at 10 µM ([3]; mouse, plasma): 17.1 min
plasma stability t1/2, earlier manuscript version quoted in the rebuttal ([3]; mouse, plasma): 14.4 min
Compound: CSCC[C@H](NC(=O)[C@H](CC(C)C)NC(=O)CNC(=O)[C@H](Cc1ccccc1)NC(=O)[C@H](Cc1ccccc1)NC(=O)[C@@H]1CCC(=O)N1)C(N)=O [CAP-TAC1] ([pGlu]FFGLM-NH2)

Compound: liraglutide
bioavailability [4]: 55%

half-life at 10 µM ([3]; mouse, plasma): 8.5 min
Compound: QFFGLM-NH2 [Substance P (6-11)]

plasma stability t1/2 [3]: 8.5 min
half-life at 10 µM ([3]; mouse, plasma): 4.5 min
Compound: CSCC[C@H](NC(=O)[C@H](CC(C)C)NC(=O)CNC(=O)[C@H](Cc1ccccc1)NC(=O)[C@H](Cc1ccccc1)NC(=O)[C@H](CCC(N)=O)NC(=O)[C@H](CCC(N)=O)NC(=O)[C@@H]1CCCN1C(=O)[C@H](CCCCN)NC(=O)[C@@H]1CCCN1C(=O)[C@@H](N)CCCN=C(N)N)C(N)=O [Substance P]

Compound: CC(C)C[C@H](NC(=O)CNC(=O)[C@@H]1CCC(=O)N1)C(=O)N[C@@H](CCC(=O)O)C(=O)N[C@@H](C)C(=O)N[C@@H](CC(C)C)C(=O)N[C@@H](CCCNC(=N)N)C(=O)N[C@@H](C)C(=O)N[C@@H](CCCNC(=N)N)C(=O)N[C@@H](CC(C)C)C(=O)N[C@@H](CCCNC(=N)N)C(=O)N[C@H](C(N)=O)C(C)C [Scrambled Peptide] ([pGlu]GLEALRARLRV-NH2)
Food Intake ([5]; 24 h, individual animal 1): 2.8 g
Food Intake ([5]; 24 h, individual animal 2): 2.6 g
Food Intake ([5]; 24 h, individual animal 3): 3.6 g
Food Intake ([5]; 24 h, individual animal 4): 3.6 g
Food Intake ([5]; 24 h, individual animal 5): 2.3 g
Food Intake ([5]; 48 h, individual animal 1): 6.2 g
Food Intake ([5]; 48 h, individual animal 2): 4.9 g
Food Intake ([5]; 48 h, individual animal 3): 7.3 g
Food Intake ([5]; 48 h, individual animal 4): 7.3 g
Food Intake ([5]; 48 h, individual animal 5): 4.2 g
Food Intake ([5]; 72 h, individual animal 1): 9.2 g
Food Intake ([5]; 72 h, individual animal 2): 7.4 g
Food Intake ([5]; 72 h, individual animal 3): 10.7 g
Food Intake ([5]; 72 h, individual animal 4): 10.9 g
Food Intake ([5]; 72 h, individual animal 5): 6.9 g

Compound: CC(C)C[C@H](NC(=O)CNC(=O)[C@@H]1CCC(=O)N1)C(=O)N[C@@H](CCC(=O)O)C(=O)N[C@@H](C)C(=O)N[C@@H](CC(C)C)C(=O)N[C@@H](CCCNC(=N)N)C(=O)N[C@@H](C)C(=O)N[C@@H](CCCNC(=N)N)C(=O)N[C@@H](CC(C)C)C(=O)N[C@@H](CCCNC(=N)N)C(=O)N[C@H](C(N)=O)C(C)C [scrambled CAP-GDF15] ([pGlu]GLEALRARLRV-NH2)
effect on acute food intake, in words [1]: completely ineffective
effect on respiratory exchange ratio (RER) [1]: completely ineffective
3-day body weight compared with control mice, in words [5, 6]: indistinguishable
3-day food intake compared with control mice, in words [5, 6]: indistinguishable

Reference: paper PMC10709327, “A class of secreted mammalian peptides with potential to expand cell-cell communication” (Nature Communications, 2023)
